{"source": "patent US6767550B1", "about": "“Hydroxyapatite based drug delivery implant for cancer treatment” (Berkeley Advanced Biomaterials, Inc., priority 2000, dated 2004)", "origin": "cited, not measured here", "key": {"[1]": {"details": "30 mg/m^2 intravenous bolus dose; 2.5 hours after administration"}, "[2]": {"details": "cumulative dose of 700 mg.m^2"}, "[3]": {"details": "in vivo"}}, "data": [{"smiles": "COc1cccc2c1C(=O)c1c(O)c3c(c(O)c1C2=O)C[C@@](O)(C(=O)CO)C[C@@H]3O[C@H]1C[C@H](N)[C@H](O)[C@H](C)O1", "note": "[doxorubicin]", "values": [{"measurement": "marro drug concentration", "setting": "[1]", "result": 0.52, "unit": "µg/g"}, {"measurement": "patients experiencing cardiotoxicity", "setting": "[2]", "result": "30-40%"}, {"measurement": "oral absorption", "setting": "[3]", "result": "poor oral absorption"}]}]}
